Source: patent US6689773B2, “Uracil substituted phenyl sulfamoyl carboxamides” (BASF Aktiengesellschaft, priority 2000, dated 2004)

Legend:
Format in all cases: in vivo
[1] = tested on: ABUTH, Velvetleaf, Abutilon theophrasti, Medic.; assay: Postemergence herbicidal evaluation (Example 147); conditions: rating scale 0-9, two to three weeks after treatment
Description: (§1) Seedling plants were grown in jiffy flats for about two weeks. The test compounds were dispersed in 80/20 acetone/water mixtures containing 1.0% SUN-IT®II, a methylated seed oil, in sufficient quantities to provide the equivalent of about 0.016 to 0.032 kg per hectare of active compound when applied to the plants through a spray nozzle operating at 40 psi for a predetermined time. After spraying, the plants were placed on greenhouse benches and were cared for in accordance with conventional greenhouse procedures. Approximately two to three weeks after treatment, the seedling plants were examined and rated according to the rating scale (0-9) set forth below. Where more than one test is involved for a given compound, the data are averaged. [table] The scale is based upon a visual observation of plant stand, vigor, malformation, size, chlorosis and overall plant appearance as compared with a control. Plant species employed in these evaluations are reported by header abbreviation, common name and scientific name. [table]

[2] = tested on: ALOMY, Blackgrass, Alopecurus myosuroides; assay: Postemergence herbicidal evaluation (Example 147); conditions: rating scale 0-9, two to three weeks after treatment
Description: as §1

[3] = tested on: AMBEL, Ragweed, Common, Ambrosia artemiisifolia, L.; assay: Postemergence herbicidal evaluation (Example 147); conditions: rating scale 0-9, two to three weeks after treatment
Description: as §1

[4] = tested on: CHEAL, Lambsquarters, Chenopodium album, L. Common; assay: Postemergence herbicidal evaluation (Example 147); conditions: rating scale 0-9, two to three weeks after treatment
Description: as §1

[5] = tested on: DIGSA, Crabgrass, (Hairy) L, Digitaria sanguinalis, (L)Scop; assay: Postemergence herbicidal evaluation (Example 147); conditions: rating scale 0-9, two to three weeks after treatment
Description: as §1

[6] = tested on: ECHCG, Barnyardgrass, Echinochloa crusgalli, (L.)Beau; assay: Postemergence herbicidal evaluation (Example 147); conditions: rating scale 0-9, two to three weeks after treatment
Description: as §1

[7] = tested on: GLXMA, Soybean, Glycine max, (L.) Merr.; assay: Postemergence herbicidal evaluation (Example 147); conditions: rating scale 0-9, two to three weeks after treatment
Description: as §1

[8] = tested on: IPOHE, Morningglory, Ivyleaf, Ipomoea hederacea, (L)Jacq.; assay: Postemergence herbicidal evaluation (Example 147); conditions: rating scale 0-9, two to three weeks after treatment
Description: as §1

[9] = tested on: SETVI, Green foxtail, Setaria viridis, (L.)Beau; assay: Postemergence herbicidal evaluation (Example 147); conditions: rating scale 0-9, two to three weeks after treatment
Description: as §1

[10] = tested on: TRZAW, Winter wheat, Tritium Aestivum, L. (Winter); assay: Postemergence herbicidal evaluation (Example 147); conditions: rating scale 0-9, two to three weeks after treatment
Description: as §1

[11] = tested on: XANST, Cocklebur, Xanthium strumariam; assay: Postemergence herbicidal evaluation (Example 147); conditions: rating scale 0-9, two to three weeks after treatment
Description: as §1

[12] = tested on: ZEAMX, Field corn, Zea mays L.; assay: Postemergence herbicidal evaluation (Example 147); conditions: rating scale 0-9, two to three weeks after treatment
Description: as §1

[13] = tested on: ABUTH, Velvetleaf, Abutilon theophrasti, Medic.; assay: Preemergence herbicidal evaluation (Example 148); conditions: rating scale 0-9, two to four weeks after treatment
Description: (§2) The scale is based upon a visual observation of plant stand, vigor, malformation, size, chlorosis and overall plant appearance as compared with a control.
(§3) The herbicidal activity of the compounds of the present invention was evaluated by the following tests wherein the seeds of a variety of monocotyledonous and dicotyledonous plants were separately mixed with potting soil and planted on top of approximately one inch of soil in separate pint cups. After planting, the cups were sprayed with the selected aqueous acetone solution containing test compound in sufficient quantity to provide the equivalent of about 0.125 to 0.250 kg per hectare of test compound per cup. The treated cups were then placed on greenhouse benches, watered and cared for in accordance with conventional greenhouse procedures. From two to four weeks after treatment, the tests were terminated and each cup was examined and rated according to the rating system provided in Example 94. When more than one test was performed for a given compound, the data were averaged.

[14] = tested on: ALOMY, Blackgrass, Alopecurus myosuroides; assay: Preemergence herbicidal evaluation (Example 148); conditions: rating scale 0-9, two to four weeks after treatment
Description: as §2, §3

[15] = tested on: AMBEL, Ragweed, Common, Ambrosia artemiisifolia, L.; assay: Preemergence herbicidal evaluation (Example 148); conditions: rating scale 0-9, two to four weeks after treatment
Description: as §2, §3

[16] = tested on: CHEAL, Lambsquarters, Chenopodium album, L. Common; assay: Preemergence herbicidal evaluation (Example 148); conditions: rating scale 0-9, two to four weeks after treatment
Description: as §2, §3

[17] = tested on: DIGSA, Crabgrass, (Hairy) L, Digitaria sanguinalis, (L)Scop; assay: Preemergence herbicidal evaluation (Example 148); conditions: rating scale 0-9, two to four weeks after treatment
Description: as §2, §3

[18] = tested on: ECHCG, Barnyardgrass, Echinochloa crusgalli, (L.)Beau; assay: Preemergence herbicidal evaluation (Example 148); conditions: rating scale 0-9, two to four weeks after treatment
Description: as §2, §3

[19] = tested on: IPOHE, Morningglory, Ivyleaf, Ipomoea hederacea, (L)Jacq.; assay: Preemergence herbicidal evaluation (Example 148); conditions: rating scale 0-9, two to four weeks after treatment
Description: as §2, §3

[20] = tested on: SETVI, Green foxtail, Setaria viridis, (L.)Beau; assay: Preemergence herbicidal evaluation (Example 148); conditions: rating scale 0-9, two to four weeks after treatment
Description: as §2, §3

[21] = tested on: TRZAW, Winter wheat, Tritium Aestivum, L. (Winter); assay: Preemergence herbicidal evaluation (Example 148); conditions: rating scale 0-9, two to four weeks after treatment
Description: as §2, §3

[22] = tested on: ZEAMX, Field corn, Zea mays L.; assay: Preemergence herbicidal evaluation (Example 148); conditions: rating scale 0-9, two to four weeks after treatment
Description: as §2, §3

For `Cn1c(C(F)(F)F)cc(=O)n(-c2cc(C(=O)NS(=O)(=O)NC(C)(C)C)c(Cl)cc2F)c1=O` [Example 65], the “Postemergence herbicidal rating ABUTH” value ([1]; rate 0.016 kg/ha) was 9.0, the “Postemergence herbicidal rating ABUTH” value ([1]; rate 0.032 kg/ha) was 9.0 and the “Postemergence herbicidal rating ALMOY” value ([2]; rate 0.016 kg/ha) was 2.0. The “Postemergence herbicidal rating ALMOY” value ([2]; rate 0.032 kg/ha) was 3.0, the “Postemergence herbicidal rating AMBEL” value ([3]; rate 0.016 kg/ha) was 9.0 and the “Postemergence herbicidal rating AMBEL” value ([3]; rate 0.032 kg/ha) was 9.0. The “Postemergence herbicidal rating CHEAL” value ([4]; rate 0.016 kg/ha) was 8.0, the “Postemergence herbicidal rating CHEAL” value ([4]; rate 0.032 kg/ha) was 9.0 and the “Postemergence herbicidal rating DIGSA” value ([5]; rate 0.016 kg/ha) was 6.0. The “Postemergence herbicidal rating DIGSA” value ([5]; rate 0.032 kg/ha) was 8.0, the “Postemergence herbicidal rating ECHCG” value ([6]; rate 0.016 kg/ha) was 8.0 and the “Postemergence herbicidal rating ECHCG” value ([6]; rate 0.032 kg/ha) was 9.0. For the same molecule, the “Postemergence herbicidal rating GLXMA” value ([7]; rate 0.016 kg/ha) was 8.0, the “Postemergence herbicidal rating GLXMA” value ([7]; rate 0.032 kg/ha) was 8.5 and the “Postemergence herbicidal rating IPOHE” value ([8]; rate 0.016 kg/ha) was 9.0. For the same molecule, the “Postemergence herbicidal rating IPOHE” value ([8]; rate 0.032 kg/ha) was 9.0, the “Postemergence herbicidal rating SETVI” value ([9]; rate 0.016 kg/ha) was 8.0 and the “Postemergence herbicidal rating SETVI” value ([9]; rate 0.032 kg/ha) was 8.0. For the same molecule, the “Postemergence herbicidal rating TRZAW” value ([10]; rate 0.016 kg/ha) was 5.5, the “Postemergence herbicidal rating TRZAW” value ([10]; rate 0.032 kg/ha) was 6.5 and the “Postemergence herbicidal rating XANST” value ([11]; rate 0.016 kg/ha) was 9.0. The “Postemergence herbicidal rating XANST” value ([11]; rate 0.032 kg/ha) was 9.0, the “Postemergence herbicidal rating ZEAMX” value ([12]; rate 0.016 kg/ha) was 7.5 and the “Postemergence herbicidal rating ZEAMX” value ([12]; rate 0.032 kg/ha) was 8.0. For the same molecule, the “Preemergence herbicidal rating ABUTH” value ([13]; rate 0.125 kg/ha) was 9.0, the “Preemergence herbicidal rating ABUTH” value ([13]; rate 0.25 kg/ha) was 9.0 and the “Preemergence herbicidal rating ALMOY” value ([14]; rate 0.125 kg/ha) was 0.0. The “Preemergence herbicidal rating ALMOY” value ([14]; rate 0.25 kg/ha) was 0.0, the “Preemergence herbicidal rating AMBEL” value ([15]; rate 0.125 kg/ha) was 9.0 and the “Preemergence herbicidal rating AMBEL” value ([15]; rate 0.25 kg/ha) was 9.0. The “Preemergence herbicidal rating CHEAL” value ([16]; rate 0.125 kg/ha) was 9.0, the “Preemergence herbicidal rating CHEAL” value ([16]; rate 0.25 kg/ha) was 9.0 and the “Preemergence herbicidal rating DIGSA” value ([17]; rate 0.125 kg/ha) was 7.0. For the same molecule, the “Preemergence herbicidal rating DIGSA” value ([17]; rate 0.25 kg/ha) was 9.0, the “Preemergence herbicidal rating ECHCG” value ([18]; rate 0.125 kg/ha) was 8.0 and the “Preemergence herbicidal rating ECHCG” value ([18]; rate 0.25 kg/ha) was 9.0. For the same molecule, the “Preemergence herbicidal rating IPOHE” value ([19]; rate 0.125 kg/ha) was 9.0, the “Preemergence herbicidal rating IPOHE” value ([19]; rate 0.25 kg/ha) was 9.0 and the “Preemergence herbicidal rating SETVI” value ([20]; rate 0.125 kg/ha) was 3.0. The “Preemergence herbicidal rating SETVI” value ([20]; rate 0.25 kg/ha) was 6.0, the “Preemergence herbicidal rating TRZAW” value ([21]; rate 0.125 kg/ha) was 1.0 and the “Preemergence herbicidal rating TRZAW” value ([21]; rate 0.25 kg/ha) was 1.0. For the same molecule, the “Preemergence herbicidal rating ZEAMX” value ([22]; rate 0.125 kg/ha) was 0.0 and the “Preemergence herbicidal rating ZEAMX” value ([22]; rate 0.25 kg/ha) was 1.0.

With `CCCN(C)S(=O)(=O)NC(=O)c1cc(-n2c(=O)cc(C(F)(F)F)n(C)c2=O)c(F)cc1Cl` [Example 67] the “Postemergence herbicidal rating ABUTH” value ([1]; rate 0.016 kg/ha) was 9.0, the “Postemergence herbicidal rating ABUTH” value ([1]; rate 0.032 kg/ha) was 9.0 and the “Postemergence herbicidal rating ALMOY” value ([2]; rate 0.016 kg/ha) was 2.0. For the same molecule, the “Postemergence herbicidal rating ALMOY” value ([2]; rate 0.032 kg/ha) was 3.0, the “Postemergence herbicidal rating AMBEL” value ([3]; rate 0.016 kg/ha) was 9.0 and the “Postemergence herbicidal rating AMBEL” value ([3]; rate 0.032 kg/ha) was 9.0. For the same molecule, the “Postemergence herbicidal rating CHEAL” value ([4]; rate 0.016 kg/ha) was 9.0, the “Postemergence herbicidal rating CHEAL” value ([4]; rate 0.032 kg/ha) was 9.0 and the “Postemergence herbicidal rating DIGSA” value ([5]; rate 0.016 kg/ha) was 6.0. The “Postemergence herbicidal rating DIGSA” value ([5]; rate 0.032 kg/ha) was 6.0, the “Postemergence herbicidal rating ECHCG” value ([6]; rate 0.016 kg/ha) was 8.0 and the “Postemergence herbicidal rating ECHCG” value ([6]; rate 0.032 kg/ha) was 8.0. For the same molecule, the “Postemergence herbicidal rating GLXMA” value ([7]; rate 0.016 kg/ha) was 8.0, the “Postemergence herbicidal rating GLXMA” value ([7]; rate 0.032 kg/ha) was 8.5 and the “Postemergence herbicidal rating IPOHE” value ([8]; rate 0.016 kg/ha) was 9.0. For the same molecule, the “Postemergence herbicidal rating IPOHE” value ([8]; rate 0.032 kg/ha) was 9.0, the “Postemergence herbicidal rating SETVI” value ([9]; rate 0.016 kg/ha) was 8.0 and the “Postemergence herbicidal rating SETVI” value ([9]; rate 0.032 kg/ha) was 8.0. The “Postemergence herbicidal rating TRZAW” value ([10]; rate 0.016 kg/ha) was 6.5, the “Postemergence herbicidal rating TRZAW” value ([10]; rate 0.032 kg/ha) was 7.0 and the “Postemergence herbicidal rating XANST” value ([11]; rate 0.016 kg/ha) was 9.0. For the same molecule, the “Postemergence herbicidal rating XANST” value ([11]; rate 0.032 kg/ha) was 9.0, the “Postemergence herbicidal rating ZEAMX” value ([12]; rate 0.016 kg/ha) was 7.5 and the “Postemergence herbicidal rating ZEAMX” value ([12]; rate 0.032 kg/ha) was 7.5. For the same molecule, the “Preemergence herbicidal rating ABUTH” value ([13]; rate 0.125 kg/ha) was 9.0, the “Preemergence herbicidal rating ABUTH” value ([13]; rate 0.25 kg/ha) was 9.0 and the “Preemergence herbicidal rating ALMOY” value ([14]; rate 0.125 kg/ha) was 0.0. For the same molecule, the “Preemergence herbicidal rating ALMOY” value ([14]; rate 0.25 kg/ha) was 0.0, the “Preemergence herbicidal rating AMBEL” value ([15]; rate 0.125 kg/ha) was 9.0 and the “Preemergence herbicidal rating AMBEL” value ([15]; rate 0.25 kg/ha) was 7.0. For the same molecule, the “Preemergence herbicidal rating CHEAL” value ([16]; rate 0.125 kg/ha) was 9.0, the “Preemergence herbicidal rating CHEAL” value ([16]; rate 0.25 kg/ha) was 9.0 and the “Preemergence herbicidal rating DIGSA” value ([17]; rate 0.125 kg/ha) was 7.0. For the same molecule, the “Preemergence herbicidal rating DIGSA” value ([17]; rate 0.25 kg/ha) was 8.0, the “Preemergence herbicidal rating ECHCG” value ([18]; rate 0.125 kg/ha) was 8.0 and the “Preemergence herbicidal rating ECHCG” value ([18]; rate 0.25 kg/ha) was 9.0. For the same molecule, the “Preemergence herbicidal rating IPOHE” value ([19]; rate 0.125 kg/ha) was 9.0, the “Preemergence herbicidal rating IPOHE” value ([19]; rate 0.25 kg/ha) was 9.0 and the “Preemergence herbicidal rating SETVI” value ([20]; rate 0.125 kg/ha) was 8.0. The “Preemergence herbicidal rating SETVI” value ([20]; rate 0.25 kg/ha) was 8.0, the “Preemergence herbicidal rating TRZAW” value ([21]; rate 0.125 kg/ha) was 0.0 and the “Preemergence herbicidal rating TRZAW” value ([21]; rate 0.25 kg/ha) was 1.0. For the same molecule, the “Preemergence herbicidal rating ZEAMX” value ([22]; rate 0.125 kg/ha) was 0.0 and the “Preemergence herbicidal rating ZEAMX” value ([22]; rate 0.25 kg/ha) was 1.0.
